Laboratory results as given in US4596806A, “7-piperidino-1,2,3,5-tetrahydroimidazo[2,1-b]-quinazolin-2-one having platelet aggregation inhibitory activity” (Daiichi Seiyaku Co., Ltd., priority 1983, dated 1986).
Values after ≈ are worked out from the molar mass of the structure shown. Read-outs that look alike come from different tables or passages of the source.

How the values were obtained:
[1] = Solubility Test (water-solubility); type: physicochemical
[2] = LD50 (probit method), mouse; details: in vivo, iv
[3] = test system: platelet aggregation; assay: Test of Platelet Aggregation Inhibition (ex vivo; i.v.); parameters: species or system rat (male Wistar-Imamichi); details: Rattus norvegicus, iv, 0.25 h, 15 min, read-out: Platelet Aggregation Inhibitory Activity (in vivo: % inhibition); for inhibition at 0.02 mg/kg: i.v. 0.02 mg/Kg/min; for inhibition at 0.067 mg/kg: i.v. 0.067 mg/Kg/min
Protocol: As test animals, 5 male Wistar-Imamichi rats (body weight: about 270 g) that had been allowed food and water ad libitum were used per group. The test compound was dissolved in a physiological saline solution (J.P.) and continuously injected to the rats under anesthesia with pentobarbital through the femoral vein. 15 minutes later, citrated blood was taken from the heart, and platelet aggregation was determined in the same manner as in Test Example 2.

[4] = test system: platelet aggregation due to addition of B16BL6 cells; assay: Test of Inhibition of Platelet Aggregation Caused by Cancer Cells (in vitro), B16BL6; type: cell-based, C57BL/6 mouse
Protocol: Blood was taken from the abdominal vein of a 7-week-old C57BL/6 male mouse into a syringe containing 1/10 volume of a 3.13% aqueous solution of sodium citrate dihydrate as an anticoagulant. The thus prepared citrated blood sample was centrifuged at 230×g at room temperature for 7 minutes. The resulting supernatant fluid was used as PRP. The remainder was further centrifuged at 1,500×g at room temperature for 10 minutes, and the supernatant fluid was used as platelet-poor-plasma (PPP). Platelet count in PRP was adjusted to 450,000 per mm^3 by PPP. A 450 μl of PRP was placed in a reaction tube and subjected to centrifugation at 950 rpm at 30° C. About 1 minute later while continuing the centrifugation, 5 μl of a 200 mM calcium chloride aqueous solution was added to the system to a final concentration of […]. 30 seconds later, 5 μl of a saline solution of the compound (I) (dihydrochloride monohydrate) was added to the system, and additional 30 seconds later, 50 μl of a cell suspension containing 1×10^5 cells of B16 melamona BL6 (B16BL6) originated in a C57BL mouse or 50 μl of a cell suspension containing 1×10^6 cells of Lewis lung cancer (3LL) originated in a C57BL mouse was added thereto. Platelet aggregation of the sample system was determined from changes in transmittancy by use of an aggregometer. […]

[5] = test system: B16BL6-induced aggregation; assay: Test of Inhibition of Platelet Aggregation Caused by Cancer Cells (ex vivo), B16BL6; type: in vivo, C57BL/6 mouse; details: 1 mg/kg or more, i.v. or oral
Protocol: The compound of the invention (dihydrochloride monohydrate) dissolved in a physiological saline solution (J.P.) was intravenously or orally administered to a 7-week-old C57BL/6 male mouse (body weight: about 20 g). Three minutes after the intravenous administration or 1 hour later from the oral administration, blood was taken from the abdominal vein into a syringe containing 1/10 volume of a 3.13% aqueous solution of sodium citrate dihydrate and PRP was prepared as described before in Test Example 6. The PRP was placed in a reaction tube under the same conditions as in Test Example 6, and 5 μl of a 200 mM calcium chloride aqueous solution was added thereto. One minute later, 50 μl of a B16BL6 (5×10^4 cells/50 μl)- or a 3LL (2×10^6 cells/50 μl)-cell suspension was added to the system. In the same manner as in Test Example 6, platelet aggregation was determined.

**Q.** With `O=C1CN2Cc3cc(N4CCCCC4)ccc3N=C2N1` [Compound (I), 7-piperidino-1,2,3,5-tetrahydroimidazo[2,1-b]quinazolin-2-one] as the compound, how does the solubility ([1]; Water at pH 4) read?
**A.** 4.1 mg/mL (≈ 15.2 mM)

**Q.** And the solubility ([1]; pH 2, Tap Water, solution pH about 2)?
**A.** 270 mg/mL (≈ 999 mM)

**Q.** And the LD50 ([2]; female ddy mouse)?
**A.** 380 mg/kg

**Q.** And the LD50 ([2]; male ddy mouse)?
**A.** 314 mg/kg

**Q.** What about the inhibition at 0.02 mg/kg ([3]; inducer ADP) of the same compound?
**A.** 11%

**Q.** And the inhibition at 0.02 mg/kg ([3]; inducer collagen)?
**A.** 86%

**Q.** And the inhibition at 0.067 mg/kg ([3]; inducer ADP)?
**A.** 37%

**Q.** And the inhibition at 0.067 mg/kg ([3]; inducer collagen)?
**A.** 100%

**Q.** What about the “inhibition of platelet aggregation due to addition of B16BL6 cells” value ([4]; 0.3 μM) of the same compound?
**A.** partially inhibited

**Q.** What about the “inhibition of platelet aggregation due to addition of B16BL6 cells” value ([4]; final concentration of 3 μM or more) of the same compound?
**A.** completely inhibited

**Q.** And the “inhibition of B16BL6-induced aggregation (ex vivo)” value [5]?
**A.** completely inhibited
